Assay in all cases: relative viability (nuclei count vs DMSO), 5 days (fraction); higher = more cells survive
Compound in experiment [1]: C1=CC=C2C(=C1)C=CC(=C2SSC3=C(C=CC4=CC=CC=C43)O)O [IPA-3] + C[C@]1(O)C[C@@H](c2nc(-c3ccc4ccc(-c5ccccc5)nc4c3)c3c(N)nccn32)C1 [Linsitinib] (partner 1 µM)
The method in brief:
(§1)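 A single step with final 0.05% Triton X-100, 1% formaldehyde and 1 ug/ml Hoechst fixed the cells and stained nuclei 5 days after treatment. Lung cancer cell lines in 1536-well plates had been treated by pin tool the day after seeding with one drug alone or a fixed anchor-drug dose plus five library-drug doses (not always all listed) in √10 steps, and nuclei were counted on 4× images. Relative viability is the ratio of nuclei in treated wells to nuclei in vehicle wells, taken as the median of duplicate plates.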

Compound in experiment [2]: C1=CC=C2C(=C1)C=CC(=C2SSC3=C(C=CC4=CC=CC=C43)O)O [IPA-3] + C[C@@H](Oc1cc(-c2cnn(C3CCNCC3)c2)cnc1N)c1c(Cl)ccc(F)c1Cl [Crizotinib] (partner 1 µM)
The method in brief: as §1

Compound in experiment [3]: C1=CC=C2C(=C1)C=CC(=C2SSC3=C(C=CC4=CC=CC=C43)O)O [IPA-3] + O=C(c1cc(Cc2n[nH]c(=O)c3ccccc23)ccc1F)N1CCN(C(=O)C2CC2)CC1 [Olaparib] (partner 8 µM)
The method in brief: as §1

Compound in experiment [4]: C1=CC=C2C(=C1)C=CC(=C2SSC3=C(C=CC4=CC=CC=C43)O)O [IPA-3] + Cc1nc(NC(=O)N2CCC[C@H]2C(N)=O)sc1-c1ccnc(C(C)(C)C(F)(F)F)c1 [Alpelisib] (partner 2 µM)
The gist of the method:
as §1

For PC-14, the relative viability in experiment [1] (first compound 0.2 µM) came to 0.945; in experiment [1] (first compound 0.6325 µM), 0.96; in experiment [1] (first compound 2 µM) it was 1.01; in experiment [1] (first compound 6.325 µM), 0.922; in experiment [1] (first compound 20 µM), 1.09; in experiment [2] (first compound 0.2 µM), 0.938. In addition, the relative viability was found to be 0.858 in experiment [2] (first compound 0.6325 µM); 1.08 in experiment [2] (first compound 2 µM); 0.839 in experiment [2] (first compound 6.325 µM); 1 in experiment [2] (first compound 20 µM); 0.286 in experiment [3] (first compound 0.2 µM); 0.29 in experiment [3] (first compound 0.6325 µM). Also, the relative viability in experiment [3] (first compound 2 µM) came out at 0.335; in experiment [3] (first compound 6.325 µM) it was 0.222; in experiment [3] (first compound 20 µM), 0.134; in experiment [4] (first compound 0.2 µM), 1.15; in experiment [4] (first compound 0.6325 µM), 0.885; in experiment [4] (first compound 2 µM) it was 1. The results for the relative viability in experiment [4] (first compound 6.325 µM) and in experiment [4] (first compound 20 µM) were 0.88 and 1.1, respectively.

In the case of RERF-LC-KJ, the relative viability was 0.965 in experiment [1] (first compound 0.2 µM); 0.876 in experiment [1] (first compound 0.6325 µM); 0.875 in experiment [1] (first compound 2 µM); 0.811 in experiment [1] (first compound 6.325 µM); 1.01 in experiment [1] (first compound 20 µM); 0.794 in experiment [2] (first compound 0.2 µM). Also, the relative viability was 0.796 in experiment [2] (first compound 0.6325 µM); 0.922 in experiment [2] (first compound 2 µM); 0.789 in experiment [2] (first compound 6.325 µM); 0.816 in experiment [2] (first compound 20 µM); 0.92 in experiment [3] (first compound 0.2 µM); 0.942 in experiment [3] (first compound 0.6325 µM). In addition, the relative viability in experiment [3] (first compound 2 µM) stood at 0.982; in experiment [3] (first compound 6.325 µM), 0.771; in experiment [3] (first compound 20 µM), 0.424; in experiment [4] (first compound 0.2 µM), 0.933; in experiment [4] (first compound 0.6325 µM), 0.807; in experiment [4] (first compound 2 µM) it was 0.83. The relative viability in experiment [4] (first compound 6.325 µM) is 0.668; in experiment [4] (first compound 20 µM) it was 0.928.

Turning to SK-LU-1, the relative viability turned out to be 1.44 in experiment [1] (first compound 0.2 µM); 1.27 in experiment [1] (first compound 2 µM); 0.893 in experiment [1] (first compound 6.325 µM); 1.11 in experiment [1] (first compound 20 µM); 1.27 in experiment [2] (first compound 0.2 µM); 0.929 in experiment [2] (first compound 2 µM). Further, the relative viability is 0.823 in experiment [2] (first compound 6.325 µM); 0.89 in experiment [2] (first compound 20 µM); 0.536 in experiment [3] (first compound 0.2 µM); 0.456 in experiment [3] (first compound 0.6325 µM); 0.494 in experiment [3] (first compound 2 µM); 0.389 in experiment [3] (first compound 6.325 µM). Moreover, the relative viability in experiment [3] (first compound 20 µM) amounted to 0.466; in experiment [4] (first compound 0.2 µM), 1.49; in experiment [4] (first compound 2 µM) it was 0.974; in experiment [4] (first compound 6.325 µM), 0.859; in experiment [4] (first compound 20 µM) it was 0.739.

Regarding SK-MES-1, the relative viability in experiment [1] (first compound 0.2 µM) was 1.13; in experiment [1] (first compound 0.6325 µM) it was 1.01; in experiment [1] (first compound 2 µM), 1.07; in experiment [1] (first compound 6.325 µM), 1.07; in experiment [1] (first compound 20 µM), 1.02; in experiment [2] (first compound 0.2 µM) it was 0.981. For the same cell line, the relative viability in experiment [2] (first compound 0.6325 µM) stood at 1; in experiment [2] (first compound 2 µM) it was 1.13; in experiment [2] (first compound 6.325 µM), 0.94; in experiment [2] (first compound 20 µM), 0.87; in experiment [3] (first compound 0.2 µM), 0.763; in experiment [3] (first compound 0.6325 µM) it was 0.694. Also, the relative viability was 0.652 in experiment [3] (first compound 2 µM); 0.498 in experiment [3] (first compound 6.325 µM); 0.241 in experiment [3] (first compound 20 µM); 1.17 in experiment [4] (first compound 0.2 µM); 0.88 in experiment [4] (first compound 0.6325 µM); 0.868 in experiment [4] (first compound 2 µM). In addition, in experiment [4] (first compound 20 µM), the relative viability was found to be 0.951.

On to SW 1573, for which the relative viability in experiment [1] (first compound 0.2 µM) was found to be 1.07; in experiment [1] (first compound 0.6325 µM), 0.921; in experiment [1] (first compound 2 µM), 0.682; in experiment [1] (first compound 6.325 µM) it was 0.833; in experiment [1] (first compound 20 µM), 0.843; in experiment [2] (first compound 0.2 µM) it was 0.802. The relative viability is 0.814 in experiment [2] (first compound 0.6325 µM); 0.933 in experiment [2] (first compound 2 µM); 0.872 in experiment [2] (first compound 6.325 µM); 0.811 in experiment [2] (first compound 20 µM); 0.665 in experiment [3] (first compound 0.2 µM); 0.403 in experiment [3] (first compound 0.6325 µM). In addition, the relative viability in experiment [3] (first compound 2 µM) worked out at 0.404; in experiment [3] (first compound 6.325 µM), 0.403; in experiment [3] (first compound 20 µM), 0.0864; in experiment [4] (first compound 0.2 µM), 0.891; in experiment [4] (first compound 0.6325 µM) it was 0.777; in experiment [4] (first compound 2 µM), 0.8. Moreover, the relative viability in experiment [4] (first compound 6.325 µM) was found to be 0.726; in experiment [4] (first compound 20 µM), 0.988.

(Values after the supplement of paper PMC10307832.)
